This is an account of results in ChEMBL document CHEMBL4041469, “The replacement of the 2-methoxy substituent of N-((6,6-diphenyl-1,4-dioxan-2-yl)methyl)-2-(2-methoxyphenoxy)ethan-1-amine improves the selectivity for 5-HT1A receptor over α1-adrenoceptor and D2-like receptor subtypes” (Eur J Med Chem, 2017).

The target in experiment [1] is T1, Alpha-1A adrenergic receptor (Homo sapiens, UniProt P35348).
T1 sequence (P35348 whole entry): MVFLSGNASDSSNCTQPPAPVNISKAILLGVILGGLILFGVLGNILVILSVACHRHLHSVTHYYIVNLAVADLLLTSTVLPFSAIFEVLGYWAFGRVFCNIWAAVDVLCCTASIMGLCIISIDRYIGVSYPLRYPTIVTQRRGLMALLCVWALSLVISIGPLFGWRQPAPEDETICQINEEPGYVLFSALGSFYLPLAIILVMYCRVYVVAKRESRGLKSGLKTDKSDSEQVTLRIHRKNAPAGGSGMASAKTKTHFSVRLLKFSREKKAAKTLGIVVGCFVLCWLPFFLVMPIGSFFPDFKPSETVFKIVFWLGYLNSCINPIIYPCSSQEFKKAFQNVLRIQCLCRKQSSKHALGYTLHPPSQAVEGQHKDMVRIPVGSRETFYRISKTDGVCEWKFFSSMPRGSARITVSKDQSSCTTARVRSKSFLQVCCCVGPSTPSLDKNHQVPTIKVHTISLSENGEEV
As to the kind of experiment: Displacement of [3H]prazosin from recombinant human alpha-1a adrenergic receptor expressed in CHO cell membranes after 30 mins by liquid scintillation counting method.

The target of experiment [2] is T2, D(4) dopamine receptor (Homo sapiens, UniProt P21917).
T2 sequence (P21917 whole entry): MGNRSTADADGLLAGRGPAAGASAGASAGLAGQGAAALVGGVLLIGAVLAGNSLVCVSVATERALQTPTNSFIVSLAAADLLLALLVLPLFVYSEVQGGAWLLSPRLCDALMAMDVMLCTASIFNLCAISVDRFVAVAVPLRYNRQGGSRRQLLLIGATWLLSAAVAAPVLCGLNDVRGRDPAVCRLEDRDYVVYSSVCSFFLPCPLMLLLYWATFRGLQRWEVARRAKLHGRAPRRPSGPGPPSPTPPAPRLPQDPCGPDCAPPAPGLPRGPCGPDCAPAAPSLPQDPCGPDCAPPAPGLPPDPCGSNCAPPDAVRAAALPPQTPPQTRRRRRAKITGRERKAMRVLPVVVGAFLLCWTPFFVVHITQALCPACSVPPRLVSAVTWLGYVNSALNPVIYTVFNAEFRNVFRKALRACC
As to the kind of experiment: Displacement of [3H]N-methylspiperone from recombinant human D4 receptor expressed in HEK293 cell membranes after 1 hr by liquid scintillation counting method.

Experiment [3] addresses D(2) dopamine receptor (Homo sapiens, UniProt P14416). As to the kind of experiment: Displacement of [3H]N-methylspiperone from recombinant human D2 receptor expressed in HEK293 cell membranes after 1 hr by liquid scintillation counting method. (Loss of bound radioactivity is the signal in a displacement assay; it reports binding, not function.)
Experiment [4] is described as follows: Selectivity index, ratio of Ki for recombinant human D2 receptor expressed in HEK293 cell membranes to Ki for recombinant human 5HT1A receptor expressed in human HeLa cell membranes.

D(2) dopamine receptor, sequence (P14416 whole entry): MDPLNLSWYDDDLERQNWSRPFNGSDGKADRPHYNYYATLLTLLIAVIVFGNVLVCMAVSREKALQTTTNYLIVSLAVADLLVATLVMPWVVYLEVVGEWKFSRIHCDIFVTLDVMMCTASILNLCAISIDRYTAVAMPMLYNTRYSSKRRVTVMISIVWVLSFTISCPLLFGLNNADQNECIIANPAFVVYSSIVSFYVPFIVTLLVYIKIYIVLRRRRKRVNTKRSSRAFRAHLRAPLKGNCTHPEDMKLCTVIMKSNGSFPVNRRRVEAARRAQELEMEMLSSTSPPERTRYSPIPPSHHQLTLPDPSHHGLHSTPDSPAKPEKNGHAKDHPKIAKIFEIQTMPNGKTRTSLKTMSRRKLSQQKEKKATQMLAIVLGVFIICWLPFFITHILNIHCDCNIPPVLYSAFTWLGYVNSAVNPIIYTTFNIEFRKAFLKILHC

The term Ki denotes the equilibrium dissociation constant of an inhibitor or competing ligand from its target. As for `COCOc1ccccc1OCCNCC1COCC(c2ccccc2)(c2ccccc2)O1` (racemic), the results for the Ki in experiment [1], in experiment [2] and in experiment [3] were 282 nM, 51.3 nM and 105 nM, respectively. Besides, the “Ratio Ki” value in experiment [4] amounted to 166.
